Where two headings read alike, the source gives them in different places.
Assays:
[1] = tested on: homologous PCA (passive cutaneous anaphlaxis) of rats; assay: Homologous PCA (passive cutaneous anaphylaxis) test of rats for 48 hours, oral (antiallergic activity); assay type: in vivo, Wistar male rats; conditions: for minimal effective dose / responders at 0.1 mg/kg / responders at 1 mg/kg / responders at 10 mg/kg / responders at 100 mg/kg / responders at 0.01 mg/kg / responders at 0.001 mg/kg: Rattus norvegicus; for minimal effective dose: minimum dosage with positive case in at least one of three rats, read-out: MED (minimum effective dosage), PCA inhibition; for responders at 0.1 mg/kg / responders at 1 mg/kg / responders at 10 mg/kg / responders at 100 mg/kg / responders at 0.01 mg/kg / responders at 0.001 mg/kg: po; for responders at 0.1 mg/kg / responders at 1 mg/kg / responders at 10 mg/kg / responders at 100 mg/kg / responders at 0.01 mg/kg / responders at 0.001 mg/kg / Number of positive zooids in one group of 3 zooids: positive = inhibition rate 50% or higher; for responders at 0.1 mg/kg / responders at 1 mg/kg / responders at 10 mg/kg / responders at 100 mg/kg / responders at 0.01 mg/kg: read-out: Number of positive zooids in one group of 3 zooids (converted); for responders at 10 mg/kg: dosage 10 mg/kg; for responders at 100 mg/kg: dosage 100 mg/kg; for responders at 0.01 mg/kg: dosage 0.01 mg/kg; for responders at 0.001 mg/kg: dosage 0.001 mg/kg, read-out: Number of positive zooids in one group of 3 zooids; for Number of positive zooids in one group of 3 zooids: listed as 31'
Method: Antiallergic activity was investigated by a homologous PCA (passive cutaneous anaphlaxis) of rats for 48 hours, where Wistar male rats having body weights of 180 to 220 g were used for sampling of antiserum and Wistar male rats having body weights of 120 to 140 g were used for the PCA test.
Anti-egg white albumin (EWA) rat serum was prepared according to Stotland and Share's method [Canad. J. Physiol. Pharmacol. 52, 1114 (1974)]. That is, 1 mg of EWA was mixed with 20 mg of aluminum hydroxide gel and 0.5 ml of mixed vaccine of pertussis, diphtheria and tetanus, and the mixture was subcutaneously administered in four portions into rat's footpad. After 14 days, blood was sampled from the carotid artery, and the serum was separated from the sampled blood, and preserved under freezing at -80° C. The potency of the antiserumin in the homologous PCA for 48 hours was 1:32.
Groups each consisting of 3 rats were used, and 0.05 ml of anti-EWA rat serum diluted with a physiological saline solution to 8 times as much was incutaneously injected each at two positions of depilated back to make the animals passively sensitised. After 47 hours, the compound of the present invention, or its solution (physiological saline solution or CMC solution) was orally administered. One hour thereafter, 0.5 ml/100 g of 1% Evan's blue physiological saline solution containing 2 mg of the antigen EWA was administered into the tail vein, and 30 minutes thereafter, the animals were sacrificed by exsanguination. Then, the skins were stripped and the amount of leaked pigment at the blue-dyed parts was measured according to the Katayama et al method [Microbiol. Immunol. 22, 89 (1978)]. That is, the blue-dyed parts were cut out by scissors, and placed in test tubes containing 1 ml of 1N KOH and incubated at 37° C. for 24 hours. Then, 9 ml of a mixture of 0.6N phosphoric acid and acetone (5:13) was added thereto, and the mixture was shaked and centrifuged at 2,500 rpm for 10 minutes. Absorbancy of the supernatant at […] was measured, and the amount of leaked pigment was quantitatively determined by the calibration curve prepared in advance. An average of measurements at the two position was made a value for one zooid, and inhibition rate for the individual zooid was calculated by the following formula: [formula]

dd, male mice = assay type: in vivo
Method: Groups each consisting of 3 dd, male mice having body weights of 20±1 g were used, and the compound of the present invention was administered orally (po: 300 mg/kg) or intraperitoneally (ip: 100 mg/kg).

[2] = mice, mortality 7 days after administration

Structure (SMILES): CN(C)CC/C=C1/c2ccccc2COc2ccc(CCCO)cc21 [Compound 33, Cis-11-(3-dimethylaminopropylidene)-2-(3-hydroxypropyl)-6,11-dihydrodibenz[b,e]oxepin; Trans-11-(3-dimethylaminopropylidene)-2-(3-hydroxypropyl)-6,11-dihydrodibenz[b,e]oxepin]
- minimal effective dose [1]: 1 mg/kg
- responders at 0.1 mg/kg ([1]; dosage 0.1 mg/kg): 0%
- responders at 1 mg/kg ([1]; dosage 1 mg/kg): 33.3%
- responders at 10 mg/kg [1]: 100%
- responders at 100 mg/kg [1]: 100%

Structure (SMILES): CN(C)CCCC=C1c2ccccc2COc2ccc(CC(=O)O)cc21 [Compound 22, 11-(4-Dimethylaminobutylidene)-6,11-dihydrodibenz[b,e]oxepin-2-acetic acid]
- Acute toxicity (MLD), ip (dd, male mice; [2]): > 100 mg/kg
- Acute toxicity (MLD), po (dd, male mice; [2]): > 300 mg/kg
- minimal effective dose [1]: 0.1 mg/kg
- responders at 0.01 mg/kg [1]: 0%
- responders at 0.1 mg/kg ([1]; dosage 0.1 mg/kg): 33.3%
- responders at 1 mg/kg ([1]; dosage 1 mg/kg): 66.7%
- responders at 10 mg/kg [1]: 100%
- responders at 100 mg/kg [1]: 100%

Structure (SMILES): CN(C)CC/C=C1/c2ccccc2COc2ccc(CCO)cc21 [Compound 31 (cis), Cis-11-(3-dimethylaminopropylidene)-2-(2-hydroxyethyl)-6,11-dihydrodibenz[b,e]oxepin]
- Acute toxicity (MLD), ip (dd, male mice; [2]): > 100 mg/kg
- Acute toxicity (MLD), po (dd, male mice; [2]): 300 mg/kg
- minimal effective dose [1]: 0.1 mg/kg
- responders at 0.001 mg/kg [1]: 0%
- responders at 0.01 mg/kg [1]: 0%
- responders at 0.1 mg/kg ([1]; dosage 0.1 mg/kg): 66.7%
- responders at 1 mg/kg ([1]; dosage 1 mg/kg): 100%
- responders at 10 mg/kg [1]: 100%

Structure (SMILES): O=C(O)c1ccc2c(c1)C(=CCCN1CCSCC1)c1ccccc1CO2 [Compound 58, 11-(3-Thiomorpholinopropylidene)-6,11-dihydrodibenz[b,e]oxepin-2-carboxylicacid]
- Acute toxicity (MLD), ip (dd, male mice; [2]): > 100 mg/kg
- Acute toxicity (MLD), po (dd, male mice; [2]): > 300 mg/kg
- minimal effective dose [1]: 1 mg/kg
- responders at 0.1 mg/kg ([1]; dosage 0.1 mg/kg): 0%
- responders at 1 mg/kg ([1]; dosage 1 mg/kg): 100%
- responders at 10 mg/kg [1]: 100%
- responders at 100 mg/kg [1]: 100%

Structure (SMILES): CN1CCN(CC=C2c3ccccc3COc3ccc(CC(=O)O)cc32)CC1 [Compound 26, 11-[2-(4-Methylpiperazino)ethylidene]-6,11-dihydrodibenz[b,e]oxepin-2-acetic acid]
- Acute toxicity (MLD), ip (dd, male mice; [2]): > 100 mg/kg
- Acute toxicity (MLD), po (dd, male mice; [2]): > 300 mg/kg
- minimal effective dose [1]: 1 mg/kg
- responders at 0.1 mg/kg ([1]; dosage 0.1 mg/kg): 0%
- responders at 1 mg/kg ([1]; dosage 1 mg/kg): 66.7%
- responders at 10 mg/kg [1]: 100%
- responders at 100 mg/kg [1]: 100%

Structure (SMILES): O=C(O)c1ccc2c(c1)C(=CCN1CCOCC1)c1ccccc1CO2 [Compound 13, 11-(2-Morpholinoethylidene)-6,11-dihydrodibenz[b,e]oxepin-2-carboxylic acid]
- Acute toxicity (MLD), ip (dd, male mice; [2]): > 100 mg/kg
- Acute toxicity (MLD), po (dd, male mice; [2]): > 300 mg/kg
- minimal effective dose [1]: 10 mg/kg
- responders at 0.1 mg/kg ([1]; dosage 0.1 mg/kg): 0%
- responders at 1 mg/kg ([1]; dosage 1 mg/kg): 0%
- responders at 10 mg/kg [1]: 33.3%
- responders at 100 mg/kg [1]: 100%

Structure (SMILES): CN(C)CC/C=C1\c2ccccc2COc2ccc(CCC(=O)O)cc21 [Compound 28 (trans), Trans-3-[11-(3-dimethylaminopropylidene)-6,11-dihydrodibenz[b,e]oxepin-2-yl]-propionic acid]
- Acute toxicity (MLD), ip (dd, male mice; [2]): > 100 mg/kg
- Acute toxicity (MLD), po (dd, male mice; [2]): > 300 mg/kg
- minimal effective dose [1]: 0.01 mg/kg
- responders at 0.001 mg/kg [1]: 0%
- responders at 0.01 mg/kg [1]: 33.3%
- responders at 0.1 mg/kg ([1]; dosage 0.1 mg/kg): 66.7%
- responders at 1 mg/kg ([1]; dosage 1 mg/kg): 66.7%
- responders at 10 mg/kg [1]: 100%
- responders at 100 mg/kg [1]: 100%

Structure (SMILES): O=C(O)c1ccc2c(c1)/C(=C\CN1CCSCC1)c1ccccc1CO2 [Compound 15, 11-(2-Thiomorpholinoethylidene)-6,11-dihydrodibenz[b,e]oxepin-2-carboxylic acid]
- minimal effective dose [1]: 100 mg/kg
- responders at 0.1 mg/kg ([1]; dosage 0.1 mg/kg): 0%
- responders at 1 mg/kg ([1]; dosage 1 mg/kg): 0%
- responders at 10 mg/kg [1]: 0%
- responders at 100 mg/kg [1]: 100%

Structure (SMILES): CN(C)CC/C=C1\c2ccccc2COc2ccc(CCO)cc21 [Compound 31, 11-(3-Dimethylaminopropylidene)-2-(2-hydroxyethyl)-6,11-dihydrodibenz[b,e]oxepin]
- Acute toxicity (MLD), ip (dd, male mice; mouse, in vivo, 10080 min): > 100 mg/kg
- Acute toxicity (MLD), po (dd, male mice; mouse, in vivo, 10080 min): > 300 mg/kg
- minimal effective dose [1]: 0.1 mg/kg
- responders at 0.01 mg/kg [1]: 0%
- responders at 10 mg/kg [1]: 100%
- responders at 100 mg/kg [1]: 100%
- Number of positive zooids in one group of 3 zooids ([1]; dosage 0.1 mg/kg): 1/3
- Number of positive zooids in one group of 3 zooids ([1]; dosage 1 mg/kg): 3/3

Structure (SMILES): CN(C)CCC=C1c2ccccc2COc2ccc(CCC(=O)O)cc21 [Compound 28, 3-[11-(3-Dimethylaminopropylidene)-6,11-dihydrodibenz[b,e]oxepin-2-yl]-propionic acid]
- Acute toxicity (MLD), ip (dd, male mice; [2]): > 100 mg/kg
- Acute toxicity (MLD), po (dd, male mice; [2]): > 300 mg/kg
- minimal effective dose [1]: 0.01 mg/kg
- responders at 0.001 mg/kg [1]: 0%
- responders at 0.01 mg/kg [1]: 66.7%
- responders at 0.1 mg/kg ([1]; dosage 0.1 mg/kg): 66.7%
- responders at 1 mg/kg ([1]; dosage 1 mg/kg): 100%
- responders at 10 mg/kg [1]: 100%
- responders at 100 mg/kg [1]: 100%

Structure (SMILES): CCN(CC)CCN=C1c2ccccc2COc2ccc(CCC(=O)O)cc21 [Compound 43, 3-[11-(2-Diethylaminoethyl)imino-6,11-dihydrodibenz[b,e]oxepin-2-yl]-propionic acid]
- Acute toxicity (MLD), ip (dd, male mice; [2]): > 100 mg/kg
- Acute toxicity (MLD), po (dd, male mice; [2]): > 300 mg/kg
- minimal effective dose [1]: 10 mg/kg
- responders at 0.1 mg/kg ([1]; dosage 0.1 mg/kg): 0%
- responders at 1 mg/kg ([1]; dosage 1 mg/kg): 0%
- responders at 10 mg/kg [1]: 66.7%
- responders at 100 mg/kg [1]: 100%

Structure (SMILES): CN(C)CC/C=C1/c2ccccc2COc2ccc(CC(=O)O)cc21 [Compound 20 (cis), Cis-11-(3-dimethylaminopropylidene)-6,11-dihydrodibenz[b,e]oxepin-2-acetic acid]
- Acute toxicity (MLD), ip (dd, male mice; [2]): > 100 mg/kg
- Acute toxicity (MLD), po (dd, male mice; [2]): > 300 mg/kg
- minimal effective dose [1]: 0.01 mg/kg
- responders at 0.001 mg/kg [1]: 0%
- responders at 0.01 mg/kg [1]: 33.3%
- responders at 0.1 mg/kg ([1]; dosage 0.1 mg/kg): 100%
- responders at 1 mg/kg ([1]; dosage 1 mg/kg): 100%
- responders at 10 mg/kg [1]: 100%
- responders at 100 mg/kg [1]: 100%

Structure (SMILES): CN(C)CC/C=C1\c2ccccc2COc2ccc(C(=O)O)cc21 [3']
- minimal effective dose [1]: 0.1 mg/kg
- responders at 0.01 mg/kg [1]: 0%
- responders at 0.1 mg/kg ([1]; dosage 0.1 mg/kg): 33.3%
- responders at 1 mg/kg ([1]; dosage 1 mg/kg): 33.3%
- responders at 10 mg/kg [1]: 66.7%
- responders at 100 mg/kg [1]: 100%

Structure (SMILES): CCN(CC)CCN=C1c2ccccc2COc2ccc(C(=O)O)cc21 [Compound 35, 11-(2-Diethylaminoethyl)imino-6,11-dihydrodibenz[b,e]oxepin-2-carboxylic acid]
- Acute toxicity (MLD), ip (dd, male mice; [2]): > 100 mg/kg
- Acute toxicity (MLD), po (dd, male mice; [2]): > 300 mg/kg
- minimal effective dose [1]: 10 mg/kg
- responders at 1 mg/kg ([1]; dosage 1 mg/kg): 0%
- responders at 10 mg/kg [1]: 33.3%
- responders at 100 mg/kg [1]: 100%

Structure (SMILES): CN(C)CC/C=C1/c2ccccc2COc2ccc(CCC(=O)O)cc21 [Compound 28 (cis), Cis-3-[11-(3-dimethylaminopropylidene)-6,11-dihydrodibenz[b,e]oxepin-2-yl]-propionic acid]
- Acute toxicity (MLD), ip (dd, male mice; [2]): > 100 mg/kg
- Acute toxicity (MLD), po (dd, male mice; [2]): > 300 mg/kg
- minimal effective dose [1]: 0.1 mg/kg
- responders at 0.01 mg/kg [1]: 0%
- responders at 0.1 mg/kg ([1]; dosage 0.1 mg/kg): 33.3%
- responders at 1 mg/kg ([1]; dosage 1 mg/kg): 100%
- responders at 10 mg/kg [1]: 66.7%
- responders at 100 mg/kg [1]: 100%

Structure (SMILES): CN(C)CC/C=C1\c2ccccc2COc2ccc(CC(=O)O)cc21 [20']
- minimal effective dose [1]: 0.1 mg/kg
- responders at 0.01 mg/kg [1]: 0%
- responders at 1 mg/kg ([1]; dosage 1 mg/kg): 100%

From US5116863A, “Dibenz[b,e]oxepin derivative and pharmaceutical compositions thereof” (Kyowa Hakko Kogyo Co., Ltd., priority 1986, dated 1992)
